According to PMC10504495 (iScience, 2023):
Blank lines part the entries; values can stand above or below the compound they belong to.

Legend:
[1] = tested on: lysine lactylation; conditions: cells, 24 h treatment; cited from earlier work
Source text: Chemical affinity-based probes are powerful tools that convert weak protein-ligand interactions into robust covalent chemical linkages, thus enabling the capture of transient interactions. […] We tried to use this la ...

[2] = target: T1, HDAC3 (Homo sapiens, UniProt O15379); test: fluorogenic probe delactylation assay; format: biochemical; conditions: 10 μM probe
T1 construct: purchased Abcam ab42631
T1 sequence (O15379 whole entry): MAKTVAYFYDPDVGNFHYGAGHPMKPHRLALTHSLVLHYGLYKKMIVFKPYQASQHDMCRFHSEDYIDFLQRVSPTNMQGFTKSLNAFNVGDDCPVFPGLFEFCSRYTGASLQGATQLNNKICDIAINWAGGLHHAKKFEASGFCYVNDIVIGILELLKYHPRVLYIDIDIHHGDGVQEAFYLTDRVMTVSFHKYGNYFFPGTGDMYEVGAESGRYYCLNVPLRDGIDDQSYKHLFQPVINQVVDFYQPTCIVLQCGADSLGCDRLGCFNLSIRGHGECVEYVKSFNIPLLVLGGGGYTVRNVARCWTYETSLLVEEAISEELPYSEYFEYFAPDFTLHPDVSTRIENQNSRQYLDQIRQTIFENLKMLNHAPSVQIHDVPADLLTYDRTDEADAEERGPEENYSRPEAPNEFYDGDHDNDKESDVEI
T1 sequence (Q9Y618 395-489 partner limits assumed): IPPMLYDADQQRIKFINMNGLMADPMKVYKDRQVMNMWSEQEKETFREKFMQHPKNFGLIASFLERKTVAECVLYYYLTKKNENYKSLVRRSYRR
Experimental: (§1) To determine the absorption spectra, 10 μM p-H4K16laNBD was incubated with or without 0.2 μM SIRT3 and 100 μM NAD^+ for 2 h in 20 mM HEPES buffer (pH = 8.0). For the fluorescence assay, the fluorescence was detected using an excitation wavelength of 480 nm, and the emitted fluorescence signal was measured over the range of 520–740 nm using a microplate reader (Molecular Devices SpectraMax ID5 Microplate Reader).
(§2) For the HPLC analysis, we incubated 10 μM p-H4K16laNBD with 0.2 μM SIRT3 and 100 μM NAD^+ in 20 mM HEPES buffer (pH = 8.0) for 2 h. We also performed time-dependent fluorescence measurements by incubating 10 μM p-H4K16laNBD with 0.2 μM SIRT3 and 100 μM NAD^+ or 0.1 μM HDAC3 in 20 mM HEPES buffer (pH = 8.0) for different time intervals. The fluorescence was measured using an excitation wavelength of 480 nm, and the emitted fluorescence signal at 550 nm was measured using a microplate reader (Molecular Devices SpectraMax ID5 Microplate Reader).
(§3) To determine the fluorescence change after incubating p-H4K16laNBD with various enzymes (HDAC3, SIRT1-3, SIRT5-7), we incubated 10 μM p-H4K16laNBD with 0.2 μM SIRT1-7 (except SIRT4) in 20 mM HEPES buffer (pH = 8.0) containing 100 μM NAD^+ for 2 h. For positive control, we used 0.1 μM HDAC3. The fluorescence was measured using an excitation wavelength of 480 nm, and the emitted fluorescence signal at 550 nm was measured using a microplate reader (Molecular Devices SpectraMax ID5 Microplate Reader).

[3] = target: T2, SIRT3 (Homo sapiens, UniProt Q9NTG7); test: fluorogenic probe delactylation assay; format: biochemical
T2 construct: SIRT3 (118–399 aa); 6xHis with TEV site (pET-N-6xHis-TEV vector) (N, cleaved yes); made in house; host or cells: E. coli BL21-CodonPlus (DE3)-RIL
T2 sequence (Q9NTG7 118-399): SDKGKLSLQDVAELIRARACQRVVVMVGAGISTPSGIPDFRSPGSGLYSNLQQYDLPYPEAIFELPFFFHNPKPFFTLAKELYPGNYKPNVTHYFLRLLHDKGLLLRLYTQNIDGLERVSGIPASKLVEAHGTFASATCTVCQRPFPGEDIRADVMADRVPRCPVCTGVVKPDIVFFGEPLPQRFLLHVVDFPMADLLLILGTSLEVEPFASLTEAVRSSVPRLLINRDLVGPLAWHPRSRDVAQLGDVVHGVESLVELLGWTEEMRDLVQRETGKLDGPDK
Experimental: as §1, §2, §3

[4] = target: T3, SIRT1 (Homo sapiens, UniProt Q96EB6); test: fluorogenic probe delactylation assay; format: biochemical; conditions: 10 μM probe, 100 μM NAD+, HEPES pH 8.0, 37°C, 2 h
T3 construct: the human SIRT1 core region (234–505 aa); SUMO (pET-28a-sumo vector) (cleaved yes); made in house; host or cells: E. coli BL21-CodonPlus (DE3)-RIL
T3 sequence (Q96EB6 234-505): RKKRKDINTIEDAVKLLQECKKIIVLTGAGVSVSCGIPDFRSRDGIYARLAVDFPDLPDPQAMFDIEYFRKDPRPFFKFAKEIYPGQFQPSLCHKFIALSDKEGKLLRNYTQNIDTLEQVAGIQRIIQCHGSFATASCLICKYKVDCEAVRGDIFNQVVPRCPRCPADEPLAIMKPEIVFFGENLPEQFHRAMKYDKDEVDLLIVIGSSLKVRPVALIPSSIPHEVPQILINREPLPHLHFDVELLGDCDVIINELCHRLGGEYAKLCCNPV
Experimental: as §3

[5] = target: T4, SIRT2 (Homo sapiens, UniProt Q8IXJ6); test: fluorogenic probe delactylation assay; format: biochemical; conditions: 10 μM probe, 100 μM NAD+, HEPES pH 8.0, 37°C, 2 h
T4 construct: SIRT2 (50–356 aa); SUMO (pET-28a-sumo vector) (cleaved yes); made in house; host or cells: E. coli BL21-CodonPlus (DE3)-RIL
T4 sequence (Q8IXJ6 50-356): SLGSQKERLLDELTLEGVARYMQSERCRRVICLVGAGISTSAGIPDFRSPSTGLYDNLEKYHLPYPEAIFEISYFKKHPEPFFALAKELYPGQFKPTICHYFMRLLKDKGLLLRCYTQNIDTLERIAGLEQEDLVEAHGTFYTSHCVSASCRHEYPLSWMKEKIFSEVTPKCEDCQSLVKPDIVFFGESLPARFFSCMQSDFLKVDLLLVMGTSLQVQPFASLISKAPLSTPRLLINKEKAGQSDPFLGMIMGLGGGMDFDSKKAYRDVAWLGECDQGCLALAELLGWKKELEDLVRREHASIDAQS
Experimental: as §3

[6] = tested on: SIRT5; test: fluorogenic probe delactylation assay; format: biochemical, human; conditions: 10 μM probe, 100 μM NAD+, HEPES pH 8.0, 37°C, 2 h
Experimental: as §3

[7] = tested on: SIRT6; test: fluorogenic probe delactylation assay; format: biochemical, human; conditions: 10 μM probe, 100 μM NAD+, HEPES pH 8.0, 37°C, 2 h
Experimental: as §3

[8] = tested on: SIRT7; test: fluorogenic probe delactylation assay; format: biochemical, human; conditions: 10 μM probe, 100 μM NAD+, HEPES pH 8.0, 37°C, 2 h
Experimental: as §3

[9] = absorption/fluorescence spectra of the probe; format: physicochemical; conditions: 10 μM probe
Experimental: as §1

[10] = target: human SIRT1 core region (234-505 aa) (human) (UniProt Q96EB6); test: ITC; 40 uL of 2 mM peptide in 20 injections titrated into 200 uL of 30 uM Sirtuin in the cell; 25 C; Tris pH 7.5, 150 mM NaCl; MicroCal PEAQ-ITC analysis software
[11] = target: human SIRT2 (50-356 aa) (human) (UniProt Q8IXJ6); test: as above
[12] = target: T2, SIRT3; test: NAD+ consumption/cycling assay; format: biochemical; conditions: for delactylation activity in words: NAD+ consumption/cycling, 3 h, Figures 1A, S2
Experimental: To screen the delactylation activity of Sirtuins, we employed a modified[35] NAD^+ cycling assay to measure the amount of unused NAD^+ levels after Sirtuins’ consumption reactions. This assay involves the conversion of NAD^+ to NADH by alcohol dehydrogenase, followed by the conversion of NADH to NAD^+ by NADH oxidoreductase, diaphorase with resazurin as an electron acceptor. The reduced resazurin is then measured as resorufin, which has a high fluorescence characteristic.[36]
To perform the NAD^+ consumption assay, 50 μM recombinant Sirtuins were co-incubated with 500 μM Kla peptides and 100 μM NAD^+ in 150 NaCl, 20 mM Tris (pH = 7.5) buffer for 3 h or overnight at 37°C. Then, hydrochloric acid, final concentration at 150 mM, was added to terminate the reaction. As for the cycling assay, 200 μL reaction buffer containing 100 mM Na2HPO4 (pH = 8.0), 10 μM resazurin, 10 μM flavin mononucleotide (FMN), 1% absolute ethanol, 66.5 μg/mL alcohol dehydrogenase and 5 μg/mL diaphorase was simultaneously mixed with 10 μL of NAD^+ consumption mixtures in 96-well white plate. Then, the plate was immediately measured by fluorescence spectrophotometer under excitation 549 nm, emission 576 nm condition.

[13] = target: T3, SIRT1; test: HPLC/LC-MS delactylation (erased ratio); format: biochemical; conditions: 100 μM peptide, 200 nM SIRT1, 37°C, 3 h
Source text: (§4) To prepare for the enzymatic assays and crystallization, the human SIRT1 core region (234–505 aa), SIRT2 (50–356 aa), SIRT5 (32–302), and full-length SIRT7 were cloned into a pET-28a-sumo vector, while SIRT3 (118–399 aa) and full-length SIRT6 were cloned into a pET-N-6xHis-TEV (Tobacco etch virus) vector. These vectors were then transformed and expressed in BL21-CodonPlus (DE3)-RIL competent cells. The recombinant proteins were purified via affinity and ion exchange purification, followed by gel filtration. To remove tags during purification, TEV, and sumo protease were utilized. The purified recombinant human Sirtuins were then concentrated to a final concentration of 10 mg/mL and stored at −80°C freezer for use in the following experiments.
(§5) LC-MS analysis was performed to test and verify the delactylation activity of Sirtuins. The lactyl peptides used in LC-MS assay was added 2 additional tryptophan residues at the N- and C- terminus to enhance the HPLC absorption sensitiveness. After incubating the peptides with Sirtuins/HDAC3 at 37°C for 3 h. The reaction was halted by methanol, and LC-MS was used to analyze the erased ratio of different peptides.

[14] = tested on: HDAC3/NCOR2; test: HPLC/LC-MS delactylation (erased ratio); format: biochemical; conditions: 100 μM peptide, 200 nM HDAC3/NCOR2, 37°C, 3 h; in comparison with Sirtuins
Experimental: as §5

[15] = target: T2, SIRT3; test: Kinetic study by HPLC, Lineweaver-Burk; format: biochemical; conditions: 10-200 μM peptide, 200 nM SIRT3, Tris pH 7.4, 37°C, 40 min, HPLC 280 nm, 3 replicates
Source text: as §4
To perform the kinetic study, the erasing rate was determined using the HPLC method. The KM and kcat values were then computed using the Lineweaver-Burk method.[37] […] The erased rate was evaluated by HPLC, and integrations at 280 nm were recorded to give the erased ratio. The kinetic parameters were then obtained using the formula: 1/v=(KM/Vmax)(1/[S])+1/Vmax .

[16] = target: T3, SIRT1; test: NAD+ consumption/cycling assay; format: biochemical; conditions: overnight (≥12 h)
Source text: as §4
To screen the delactylation activity of Sirtuins, we employed a modified[35] NAD^+ cycling assay to measure the amount of unused NAD^+ levels after Sirtuins’ consumption reactions. […] The reduced resazurin is then measured as resorufin, which has a high fluorescence characteristic.[36]
To perform the NAD^+ consumption assay, 50 μM recombinant Sirtuins were co-incubated with 500 μM Kla peptides and 100 μM NAD^+ in […], 20 mM Tris (pH = 7.5) buffer for 3 h or overnight at 37°C. […] Then, the plate was immediately measured by fluorescence spectrophotometer under excitation 549 nm, emission 576 nm condition.

[17] = target: T4, SIRT2; test: HPLC/LC-MS delactylation (erased ratio); format: biochemical; conditions: 100 μM peptide, 200 nM SIRT2, 37°C, 3 h
Source text: as §4, §5

[18] = target: T2, SIRT3; test: HPLC/LC-MS delactylation (erased ratio); format: biochemical; conditions: 100 μM peptide, 200 nM SIRT3, 37°C, 3 h; compared with other Sirtuins
Source text: as §4, §5

Compound: CC(O)C(=O)[O-].[Na+] (stereo not shown) [sodium lactate]
induction of lysine lactylation [1]: will induce detectable levels of lysine lactylation

first-order rate constant k, HDAC3 ([2]; 0.1 μM HDAC3, 20 mM HEPES pH 8.0, λex 480, λem 550 nm): 0.0102 min⁻¹
fluorescence response, HDAC3 ([2]; 0.1 μM HDAC3, HEPES pH 8.0, 37°C, 2 h): fluoresced at 550 nm
first-order rate constant k, SIRT3 ([3]; 10 μM probe, 0.2 μM SIRT3, 100 μM NAD+, 20 mM HEPES pH 8.0, λex 480, λem 550 nm): 0.0059 min⁻¹
fluorescence response, SIRT3 ([3]; 10 μM probe, SIRT3, 100 μM NAD+, HEPES pH 8.0, 37°C, 2 h): fluoresced at 550 nm
fluorescence response, SIRT1 [4]: minimal changes in fluorescence
fluorescence response, SIRT2 [5]: minimal changes in fluorescence
Compound: GGAK(lac)RHRPra-NH2 [p-H4K16laNBD, H4K16la based fluorogenic probe with O-NBD (nitrobenzofurazan) group conjugated to the C-terminus]
fluorescence with sole NAD+ or denatured SIRT3 ([3]; control groups): will not affect the fluorescence generating
fluorescence response, SIRT5 [6]: minimal changes in fluorescence
fluorescence response, SIRT6 [7]: minimal changes in fluorescence
fluorescence response, SIRT7 [8]: minimal changes in fluorescence
new absorption peak after enzymatic reaction ([9]; 0.2 μM SIRT3, 100 μM NAD+, 2 h, HEPES pH 8.0): 482 nm
absorption peak ([9]; 20 mM HEPES pH 8.0, without enzyme): around 370 nm
fluorescence emission peak after incubation with SIRT3 and NAD+ ([9]; λex 480 nm, 0.2 μM SIRT3, 100 μM NAD+): 550 nm

Kd [10]: 92.3 µM
Kd [11]: 42.2 µM
Compound: H3K9ac peptide

Compound: KGGAK (L/D lactic acid) RHRK [H4K16la, lactyl-lysine H4K16 peptide; NAD+ assay and ITC]
delactylation activity in words [12]: higher delactylation activity
NAD+ consumption overnight in words ([12]; overnight (≥12 h)): consumed much higher level of NAD^+
hydrolytic activity, HPLC [13]: slight hydrolytic activity
in vitro delactylation activity, HPLC [14]: highest in vitro delactylation activity
kcat [15]: 0.08 ± 0.008 s⁻¹
Vmax ([15]; Lineweaver-Burk): 0.925 ± 0.101 µmol/L/min

NAD+ consumption overnight in words [16]: consumed much higher level of NAD^+
hydrolytic activity, HPLC [13]: slight hydrolytic activity
Compound: QTARK (L/D lactic acid) STGG [H3K9la, lactyl-lysine H3K9 peptide; Trp-flanked version used in HPLC-MS]

hydrolytic activity, HPLC [13]: didn’t show any hydrolytic activity
hydrolytic activity, HPLC [17]: didn’t show any hydrolytic activity
erased ratio / hydrolytic activity, HPLC [18]: didn’t show any hydrolytic activity
Compound: WKGLGK (L/D-lactic acid) GGAKW [H4K12la, lactyl-lysine H4K12 peptide]

delactylation activity in words [12]: higher delactylation activity
Compound: WKQLATK (L/D-lactic acid) AARKW [H3K23la, lactyl-lysine H3K23 peptide]
